Tests used:
Format in all cases: in vivo
Poa annua (POAAN) = assay: Herbicidal early post-emergence action (Table A3); conditions: 1900 g/ha; scored visually 9 to 12 days after treatment; 100% = plants have died, 0% = like control plants
Description: (§1) Seeds of monocotyledonous and dicotyledonous weed plants were placed in 96-well microtiter plates in quartz sand and grown in a climatized chamber under controlled growth conditions. 5 to 7 days after sowing, the test plants were treated at the cotyledon stage. The compounds according to the invention, formulated in the form of emulsion concentrates (EC), were applied with a water application rate of the equivalent of 2200 liters per hectare. After the test plants had been left to stand in the climatized chamber for 9 to 12 days under optimum growth conditions, the effect of the preparations was scored visually in comparison to untreated controls. For example, 100% activity=the plants have died, 0% activity=like control plants. Tables A1 to A8 below show the effects of selected compounds of the general formula (I) according to Table 1 on various harmful plants and an application rate corresponding to 1900 g/ha, which were obtained by the experimental procedure mentioned above.

[1] = test system: harmful plants AGSTE, DIPTE, LOLPE, MATCH, POAAN, SETVI, STEME and VERPE; assay: Herbicidal early post-emergence action, summary of Tables A1-A8; conditions: application rate of 1900 g of active ingredient per hectare; summary in words
Description: as §1, with “plants.” for “plants. Tables A1 to A8 below show the effects of selected compounds of the general formula (I) according to Table 1 on various harmful plants and an application rate corresponding to 1900 g/ha, which were obtained by the experimental procedure mentioned above.”
Tables A1 to A8 below show the effects of selected compounds of the general formula (I) according to Table 1 on various harmful plants and an application rate corresponding to 1900 g/ha, which were obtained by the experimental procedure mentioned above.
As the results of Tables A1-A8 show, compounds no.

Agrostis tenuis (AGSTE) = assay: Herbicidal early post-emergence action (Table A1); conditions: 1900 g/ha; scored visually 9 to 12 days after treatment; 100% = plants have died, 0% = like control plants
Description: as §1

SMILES | Early post-emergence effect against Poa annua (POAAN) (Poa annua (POAAN)) | herbicidal activity against the harmful plants of Tables A1-A8 in early post-emergence treatment [1] | Early post-emergence effect against Agrostis tenuis (AGSTE) (Agrostis tenuis (AGSTE))
Cc1ccc(-c2ccccc2Oc2ncc(Cl)cc2F)nc1 [Example 1-106] | 80% | very good herbicidal activity | 
FC(F)(F)c1ccnc(-c2ccccc2Oc2ccc(Cl)cn2)c1 [Example 1-70] | 100% | very good herbicidal activity | 100%
Fc1cc(Cl)cnc1Oc1ccccc1-c1cc(C(F)(F)F)ccn1 [Example 1-69] | 100% | very good herbicidal activity | 100%
Fc1cc(Cl)cnc1Oc1ccccc1-c1ccc(C(F)(F)F)cn1 [Example 1-66] | 80% | very good herbicidal activity | 100%
FC(F)(F)c1cncc(-c2ccccc2Oc2ccc(Cl)cn2)c1 [Example 1-73] | 80% | very good herbicidal activity | 100%
